{"source": "patent US12152012B2", "about": "“BRAG2 inhibitors and applications thereof” (CENTRE NATIONAL DE LA RECHERCHE SCIENTIFIQUE, priority 2018, dated 2024)", "key": {"BRAG2 (BRAG2^Sec7PH)": {"target": "T1, BRAG2 (BRAG2^Sec7PH) (Homo sapiens, UniProt Q6DN90)", "T1 construct": "human BRAG2^Sec7 (390-594) and BRAG2^Sec7PH (390-811); made in house", "T1 sequence (Q6DN90 512-933)": "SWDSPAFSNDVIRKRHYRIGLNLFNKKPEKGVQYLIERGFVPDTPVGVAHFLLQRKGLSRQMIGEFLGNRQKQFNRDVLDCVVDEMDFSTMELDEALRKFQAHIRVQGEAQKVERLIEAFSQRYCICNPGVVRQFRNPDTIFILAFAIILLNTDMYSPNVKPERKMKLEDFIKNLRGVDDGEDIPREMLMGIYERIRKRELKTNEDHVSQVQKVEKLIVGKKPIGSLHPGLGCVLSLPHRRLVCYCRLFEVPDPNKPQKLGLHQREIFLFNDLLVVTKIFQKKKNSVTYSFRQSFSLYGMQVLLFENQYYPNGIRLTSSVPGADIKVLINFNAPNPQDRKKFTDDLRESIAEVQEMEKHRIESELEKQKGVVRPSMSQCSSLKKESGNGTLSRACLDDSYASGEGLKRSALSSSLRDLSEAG", "test": "Nucleotide exchange kinetics on liposomes, activation of myristoylated Arf1", "assay_type": "biochemical", "protocol": "The effect of Bragsin1 on the GEF efficiency of representative human ArfGEFs was evaluated by fluorescence kinetics using highly purified recombinant Arf GTPases and ArfGEFs. In a first series of assays, the Sec7 domains of BIG1, a Golgi ArfGEF, and of ARNO, EFA6a and BRAG2, which function at the plasma membrane, were used. When tested in solution, Bragsin1 had no effect on the activation of Arf1 by any of these Sec7 domains (FIGS. 2a and 14). Separately, we reconstituted the activation of myristoylated Arf1 by the same ArfGEFs on liposomes using ArfGEF constructs that contain a membrane-binding domain (DCB-HUS domain for BIG1, PH domains for the other GEFs). […] BRAG2 activates several Arf isoforms, including the plasma membrane-located Arf6 isoform. […] Bragsin1 and Bragsin2 have the same IC50 towards BRAG2 ([…]) according to dose-response analysis, confirming that Bragsin1 and Bragsin2 can be used interchangeably (FIG. 2d). The specific inhibition of BRAG2 by Bragsin in vitro predicts that BRAG2 silencing by siRNA should yield the same phenotype as treatment by the small molecule. Silencing of BRAG2 induced the redistribution of TGN46 into tubular or punctate structures, which phenocopied the effects induced by Bragsin (FIGS. 2e, 17 and 18). […] Silencing of ARNO, which is located at the plasma membrane, had no effect on TGN46 distribution. Overexpression of BRAG2-mCherry rescued the dispersion of the TGN46 structure induced by Bragsin, which is consistent with the silencing experiments (FIG. 2f). Bragsin is a specific inhibitor of the ArfGEF BRAG2 in vitro and in cells according to these experiments. These oexperiments identify a mechanism of inhibition that requires the membrane to manifests itself.\nBovine Δ17Arf1 and human Δ13Arf6, full-length myristoylated Arf1 and Arf6, human BRAG2^Sec7 (390-594) and BRAG2^Sec7PH (390-811), human EFA6^Sec7 (527-727) and EFA6^Sec7PHCt (527-1024), ARNO^Sec7 (50-256), BIG1^Sec7 (691-889), BIG1^DcbHusSec7 (2-888) and ARNO^Sec7PH (50-399) were expressed and purified as in (Benabdi, S. et al. Family-wide Analysis of the Inhibition of Arf Guanine Nucleotide Exchange Factors with Small Molecules: Evidence of Unique Inhibitory Profiles. Biochemistry 56, 5125-5133 (2017)) and references therein. BRAG2^Sec7PH mutants were purified as the wild type protein. Purification of human full-length Rac1 carrying a 6xHis tag in C-terminus and human TRIO^DH1PH1 (1232-1550) was described in (Peurois, F. et al. Characterization of the activation of small GTPases by their GEFs on membranes using artificial membrane tethering. Biochem J 474, 1259-1272 (2017)).\nLipids (of natural origin) were from Avanti Polar Lipids, except NBD-PE from Sigma. Liposomes were prepared as described in (Aizel, K. et al. Integrated conformational and lipid-sensing regulation of endosomal ArfGEF BRAG2. PLOS Biol 11, e1001652 (2013)) and extruded at 0.2 μm. For the Arf GEF specificity studies, liposomes contained 48% phosphatidylcholine (PC), 20% phosphatidylethanolamine (PE), 30% phosphatidylserine (PS) and 2% phosphatidylinositol-4,5-bisphosphate (PIP2). For Rac activation assay, liposomes contained 43% PC, 20% PE, 10% PS, 20% cholesterol, 2% PIP2, 5% NiNTA lipids and 0.2% NBD-PE. To exclude aggregation or disruption of the liposomes, their size distribution was controlled before and after experiments by dynamic light scattering as described in (Benabdi, S. et al. Biochemistry 56, 5125-5133 (2017)). Dose-response and flotation assays were carried out with liposomes containing 37.9% PC, 20% PE, 20% PS, 2% PIP2, 20% cholesterol and 0.1% NBD-PE. Flotation assays were carried out as in 18.\nNucleotide exchange kinetics were monitored by tryptophan fluorescence with excitation/emission wavelengths of 292/340 nm using a Cary Eclipse fluorimeter (Varian) at 37° C. and under continuous stirring as described in ^50,51. […]"}, "[1]": {"system": "TGN46 (trans-Golgi network marker) in Hela cells", "test": "Immunostaining and confocal microscopy of Hela cells", "assay_type": "cell-based, human", "conditions": "for Reversibility of TGN46 dispersion / Dispersion of TGN46 marker: Hela cells; for Reversibility of TGN46 dispersion: 50 μM 30 min, then 30 min in fresh medium; for Dispersion of TGN46 marker: 50 μM, 30 min; for Rescue of compound-induced TGN46 dispersion by constitutively active Arf1, Arf5, Arf6 Q/L-mCherry: transfected Hela cells", "protocol": "FIG. 1. Bragsin2 affects Arf pathways in cells • a. Chemical structures of Bragsin1 and Bragsin2 and derivatives used in this study. Chemical synthesis and structural characterization of the compounds are described in example 6. • b. Bragsin2 disperses the TGN46 and GM130 markers. HeLa cells were treated with either DMSO (0.25%) or Bragsin2 (50 μM) for 30 min, immunostained for TGN46, GM130 or EEA1 (green channel) and analysed by confocal microscopy. Dispersion of GM130 and TGN46 by Bragsin2 is reversible. Hela cells were treated as in FIG. 1a and were incubated for an additional 30 min in fresh medium (wash panel) prior to immunostaining and confocal microscopy analysis. Expression of Arf-mCherry constructs carrying an activating mutation rescues the effect of Bragsin2. Hela cells were transfected with constitutively active Q/L mutants of Arf-mCherry. Note the difference between non-transfected cells (white asterisk) and transfected cells. Scale bars, 10 μm.\nHela cells were grown in Dulbecco's modified Eagle's medium supplemented with Glutamax™ and 10% fetal bovine serum (Invitrogen). For immunofluorescence studies, cells were grown on Labtek glass slides (Nunc) and transfected for 18 to 24 h using Lipofectamine 2000 (Invitrogen), according to the supplier's instructions. When specified, cells were treated with the indicated concentration of small molecule or corresponding volume of vehicle (DMSO) in growth medium for 30 min at 37° C.\nImmunostaining procedure was as described in (Viaud, J. et al. Structure-based discovery of an inhibitor of Arf activation by Sec7 domains through targeting of protein-protein complexes. Proc Natl Acad Sci USA 104, 10370-5 (2007)) except that secondary antibody incubation was performed for 1h using Alexa 488-conjugated goat anti-mouse (1:600) or donkey anti-sheep (1:500) IgG and Alexa 647-conjugated phalloidin (1:100). Anti-GM130 was used at dilution 1:200. Images were bidirectionally recorded using an inverted Leica TCS SP8 laser-scanning confocal microscope with a 100× (N. A. 1.40) oil objective (HCX APO, Leica). Fluorochromes were detected sequentially using excitation laser lines at 488 nm (Alexa 488), 594 nm (mCherry) and 633 nm (Alexa 647). Stacks were generated using a z-step of 0.5 μm and processed using Fiji/ImageJ (Schindelin, J. et al. Fiji: an open-source platform for biological-image analysis. Nat Methods 9, 676-82 (2012)). Images are representative of at least two independent experiments."}}, "note": "“Also recorded” adds a separate entry of the source."}
{"smiles": "COc1ccc2oc(C(F)(F)F)cc(=O)c2c1[N+](=O)[O-]", "note": "[Bragsin2, 6-methoxy-5-nitro-2-(trifluoromethyl)-4H-chromen-4-one]", "values": [{"measurement": "Inhibition of BRAG2 on liposomes that contain PIP2 compared to PS as sole negatively charged lipid", "setting": "BRAG2 (BRAG2^Sec7PH); lipid composition of liposomes varied", "value": "more efficiently; also recorded: stronger"}, {"measurement": "Reversibility of TGN46 dispersion", "setting": "[1]", "value": "reversible"}, {"measurement": "Dispersion of TGN46 marker", "setting": "[1]", "value": "disperses"}, {"measurement": "Rescue of compound-induced TGN46 dispersion by constitutively active Arf1, Arf5, Arf6 Q/L-mCherry", "setting": "[1]", "value": "rescues"}]}
{"smiles": "Cc1ccc2oc(C(F)(F)F)cc(=O)c2c1[N+](=O)[O-]", "note": "[Bragsin1, 6-methyl-5-nitro-2-(trifluoromethyl)-4H-chromen-4-one]", "values": [{"measurement": "Inhibition of BRAG2 in the presence of liposomes", "setting": "BRAG2 (BRAG2^Sec7PH); 50 μM compound vs DMSO, myristoylated Arf1, liposomes", "value": "strongly inhibited; also recorded: specifically inhibits"}, {"measurement": "Activity towards BRAG2 after storage", "setting": "BRAG2 (BRAG2^Sec7PH); stock solution in DMSO kept for several months", "value": "lost activity"}, {"measurement": "Reversibility of TGN46 dispersion", "setting": "[1]", "value": "reversible"}, {"measurement": "Dispersion of TGN46 marker", "setting": "[1]", "value": "disperses"}, {"measurement": "Rescue of compound-induced TGN46 dispersion by constitutively active Arf1, Arf5, Arf6 Q/L-mCherry", "setting": "[1]", "value": "rescues"}]}
